Results on one molecule are retold here after ChEMBL document CHEMBL1135364, “Synthesis and structure-activity relationships of oxime neurokinin antagonists: discovery of potent arylamides” (Bioorg Med Chem Lett, 2002).

Molecules are shown by their SMILES. pKi: −log10 of the molar value.

The term pKi denotes −log10 of the Ki, conventionally taken in molar units.

The test deals with T1, Substance-K receptor (Homo sapiens, UniProt P21452).
T1 sequence (P21452 whole entry): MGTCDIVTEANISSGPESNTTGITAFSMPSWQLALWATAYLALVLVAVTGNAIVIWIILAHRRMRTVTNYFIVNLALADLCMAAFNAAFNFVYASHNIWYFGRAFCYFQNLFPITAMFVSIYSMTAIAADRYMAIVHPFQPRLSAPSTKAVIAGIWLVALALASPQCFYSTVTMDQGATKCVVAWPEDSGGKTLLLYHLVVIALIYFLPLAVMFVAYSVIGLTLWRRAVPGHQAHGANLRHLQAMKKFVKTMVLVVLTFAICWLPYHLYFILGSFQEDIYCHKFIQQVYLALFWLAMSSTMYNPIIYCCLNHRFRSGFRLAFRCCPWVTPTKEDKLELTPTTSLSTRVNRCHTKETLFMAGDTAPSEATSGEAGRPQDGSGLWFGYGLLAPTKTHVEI
Kind of test: Tested for binding affinity of compound against Tachykinin receptor 2.

Regarding `CO/N=C(/COCc1cc(C(F)(F)F)cc(C(F)(F)F)c1)C(CCN1CCC(O)(c2ccccc2)CC1)c1ccc(Cl)c(Cl)c1` (stereo unspecified), the negative logarithm of the Ki (pKi) is 7.68.
